The record followed here is article PMC7827406, “Structure–Activity Relationship (SAR) Study of Spautin-1 to Entail the Discovery of Novel NEK4 Inhibitors” (International Journal of Molecular Sciences, 2021).

Where two headings read alike, the source gives them in different places.

Assay in all cases: biochemical
Common to all, as to parameters: Eurofins KinaseProfiler full panel at Km ATP, residual kinase activity (%) relative to DMSO

In one assay the target is T1, OSR1(h) (Homo sapiens, UniProt O95747).
T1 construct: gene OXSR1
T1 sequence (O95747 whole entry): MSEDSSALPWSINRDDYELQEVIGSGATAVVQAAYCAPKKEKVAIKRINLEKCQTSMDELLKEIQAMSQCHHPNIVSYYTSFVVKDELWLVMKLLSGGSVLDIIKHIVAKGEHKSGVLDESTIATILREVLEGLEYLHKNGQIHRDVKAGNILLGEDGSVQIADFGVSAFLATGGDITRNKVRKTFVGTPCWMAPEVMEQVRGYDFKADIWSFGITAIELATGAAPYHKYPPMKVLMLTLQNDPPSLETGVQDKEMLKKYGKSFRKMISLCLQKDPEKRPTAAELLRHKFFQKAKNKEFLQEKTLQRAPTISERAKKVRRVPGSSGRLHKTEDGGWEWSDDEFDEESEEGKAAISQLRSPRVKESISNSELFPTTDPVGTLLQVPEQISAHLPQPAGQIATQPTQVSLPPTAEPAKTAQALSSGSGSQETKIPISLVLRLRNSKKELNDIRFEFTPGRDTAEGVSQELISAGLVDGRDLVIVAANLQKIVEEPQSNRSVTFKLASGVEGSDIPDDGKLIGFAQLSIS
In short, it runs like this: (§1)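 Compounds screened at 10 µM in radiometric kinase activity assays at Km ATP, reported as remaining kinase activity (%). A KINOMEscan competition-binding screen at 10 µM measured DNA-tagged kinase retained on immobilized active-site ligand by qPCR.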

In another assay the target is TNIK(h) (Homo sapiens, UniProt Q9UKE5). In short, it runs like this: as §1
Chain of TNIK(h) (Q9UKE5 whole entry): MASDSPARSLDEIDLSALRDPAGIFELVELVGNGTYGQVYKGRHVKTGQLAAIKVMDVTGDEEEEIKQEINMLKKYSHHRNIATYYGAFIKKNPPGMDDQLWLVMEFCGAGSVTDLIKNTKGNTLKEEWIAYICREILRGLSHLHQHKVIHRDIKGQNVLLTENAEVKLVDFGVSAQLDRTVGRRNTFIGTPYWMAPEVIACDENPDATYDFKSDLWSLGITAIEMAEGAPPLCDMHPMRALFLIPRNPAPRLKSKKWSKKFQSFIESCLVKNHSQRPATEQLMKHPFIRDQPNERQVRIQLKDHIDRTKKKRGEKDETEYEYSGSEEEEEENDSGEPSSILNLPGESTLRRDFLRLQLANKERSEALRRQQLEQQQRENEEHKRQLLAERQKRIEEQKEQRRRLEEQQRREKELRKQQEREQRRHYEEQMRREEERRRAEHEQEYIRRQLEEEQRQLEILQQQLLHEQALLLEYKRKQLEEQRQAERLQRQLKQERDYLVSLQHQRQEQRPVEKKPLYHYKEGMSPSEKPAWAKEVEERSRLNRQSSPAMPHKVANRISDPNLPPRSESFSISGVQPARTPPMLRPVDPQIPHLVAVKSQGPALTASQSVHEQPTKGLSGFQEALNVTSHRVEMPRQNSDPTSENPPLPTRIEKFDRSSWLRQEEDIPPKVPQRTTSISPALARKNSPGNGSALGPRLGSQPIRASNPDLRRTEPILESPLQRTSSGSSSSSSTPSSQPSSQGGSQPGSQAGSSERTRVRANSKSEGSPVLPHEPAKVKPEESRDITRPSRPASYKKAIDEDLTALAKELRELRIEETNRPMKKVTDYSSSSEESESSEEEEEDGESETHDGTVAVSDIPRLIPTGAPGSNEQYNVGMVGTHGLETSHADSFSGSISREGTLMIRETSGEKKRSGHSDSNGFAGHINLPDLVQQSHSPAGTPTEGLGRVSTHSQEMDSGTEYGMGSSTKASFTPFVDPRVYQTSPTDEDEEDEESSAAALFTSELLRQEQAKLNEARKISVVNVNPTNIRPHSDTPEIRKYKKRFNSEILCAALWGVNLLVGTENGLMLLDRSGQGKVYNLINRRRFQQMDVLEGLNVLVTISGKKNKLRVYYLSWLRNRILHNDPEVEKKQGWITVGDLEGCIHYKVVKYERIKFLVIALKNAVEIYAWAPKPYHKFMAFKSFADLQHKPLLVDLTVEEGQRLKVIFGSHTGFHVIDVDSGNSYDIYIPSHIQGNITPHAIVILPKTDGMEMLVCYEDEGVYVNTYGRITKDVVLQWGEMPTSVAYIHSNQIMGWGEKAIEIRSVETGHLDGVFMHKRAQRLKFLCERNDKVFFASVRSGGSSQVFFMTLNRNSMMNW
Another assay has as its target T2, JAK3(h) (Homo sapiens, UniProt P52333).
T2 sequence (P52333 1-1124): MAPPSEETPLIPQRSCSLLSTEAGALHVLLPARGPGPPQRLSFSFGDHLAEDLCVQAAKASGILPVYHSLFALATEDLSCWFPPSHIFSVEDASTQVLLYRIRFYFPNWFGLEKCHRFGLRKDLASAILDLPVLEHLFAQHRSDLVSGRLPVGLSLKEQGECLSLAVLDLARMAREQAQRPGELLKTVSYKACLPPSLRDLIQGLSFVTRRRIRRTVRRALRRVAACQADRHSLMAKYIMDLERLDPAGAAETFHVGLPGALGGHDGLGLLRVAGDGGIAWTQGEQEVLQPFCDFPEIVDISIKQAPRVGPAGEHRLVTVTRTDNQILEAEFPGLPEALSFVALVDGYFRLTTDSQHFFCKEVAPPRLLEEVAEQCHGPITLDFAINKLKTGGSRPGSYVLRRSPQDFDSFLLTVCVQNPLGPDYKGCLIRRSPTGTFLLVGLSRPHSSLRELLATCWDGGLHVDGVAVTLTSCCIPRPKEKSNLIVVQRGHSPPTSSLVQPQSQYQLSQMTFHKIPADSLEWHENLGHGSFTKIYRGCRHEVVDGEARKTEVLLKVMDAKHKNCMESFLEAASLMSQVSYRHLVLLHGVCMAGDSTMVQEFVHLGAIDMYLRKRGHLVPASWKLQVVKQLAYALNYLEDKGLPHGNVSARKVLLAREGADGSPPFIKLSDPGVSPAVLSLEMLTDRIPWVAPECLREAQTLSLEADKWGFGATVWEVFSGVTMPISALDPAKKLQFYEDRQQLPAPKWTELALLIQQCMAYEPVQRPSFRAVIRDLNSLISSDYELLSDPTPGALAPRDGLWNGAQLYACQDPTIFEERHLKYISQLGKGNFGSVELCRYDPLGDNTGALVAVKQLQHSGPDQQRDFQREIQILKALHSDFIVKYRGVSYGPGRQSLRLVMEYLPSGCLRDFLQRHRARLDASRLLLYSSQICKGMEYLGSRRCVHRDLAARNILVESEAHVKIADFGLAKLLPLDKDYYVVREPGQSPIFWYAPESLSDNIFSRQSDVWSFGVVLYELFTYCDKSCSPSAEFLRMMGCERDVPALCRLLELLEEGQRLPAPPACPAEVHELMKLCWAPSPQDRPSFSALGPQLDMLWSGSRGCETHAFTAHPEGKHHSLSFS
In short, it runs like this: as §1

A further assay addresses T3, MRCKβ(h) (Homo sapiens, UniProt Q9Y5S2).
T3 construct: gene CDC42BPB
The method in brief: as §1

The next assay has as its target T4, PDGFRα(V561D)(h) (Homo sapiens, UniProt P16234, V561D).
T4 construct: gene PDGFRA
In short, it runs like this: as §1

A further assay deals with T5, CaMKIV(h) (Homo sapiens, UniProt Q16566).
T5 construct: gene CAMK4
T5 sequence (Q16566 1-473): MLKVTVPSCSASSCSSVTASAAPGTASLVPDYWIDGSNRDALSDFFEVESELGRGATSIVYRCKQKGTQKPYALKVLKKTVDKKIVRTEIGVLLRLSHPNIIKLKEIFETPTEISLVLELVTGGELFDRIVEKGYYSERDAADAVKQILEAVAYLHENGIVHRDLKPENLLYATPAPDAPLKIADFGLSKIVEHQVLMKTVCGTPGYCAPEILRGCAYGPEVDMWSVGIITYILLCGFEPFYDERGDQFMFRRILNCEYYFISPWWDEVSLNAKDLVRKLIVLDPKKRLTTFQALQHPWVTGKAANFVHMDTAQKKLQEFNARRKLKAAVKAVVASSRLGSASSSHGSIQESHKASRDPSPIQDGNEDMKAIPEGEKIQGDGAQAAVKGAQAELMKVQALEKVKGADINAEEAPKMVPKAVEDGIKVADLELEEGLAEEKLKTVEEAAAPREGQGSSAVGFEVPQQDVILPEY
In short, it runs like this:
as §1

Setting [1] is: read-out: Residual activity (%) Spautin-1 5aa.
The mark [2] stands for this setting: read-out: Residual activity (%) 5as.
Setting [3] is: read-out: Residual activity (%) 5at.
[4] abbreviates: read-out: Residual activity (%) 5ay.

T3 sequence (Q9Y5S2 whole entry): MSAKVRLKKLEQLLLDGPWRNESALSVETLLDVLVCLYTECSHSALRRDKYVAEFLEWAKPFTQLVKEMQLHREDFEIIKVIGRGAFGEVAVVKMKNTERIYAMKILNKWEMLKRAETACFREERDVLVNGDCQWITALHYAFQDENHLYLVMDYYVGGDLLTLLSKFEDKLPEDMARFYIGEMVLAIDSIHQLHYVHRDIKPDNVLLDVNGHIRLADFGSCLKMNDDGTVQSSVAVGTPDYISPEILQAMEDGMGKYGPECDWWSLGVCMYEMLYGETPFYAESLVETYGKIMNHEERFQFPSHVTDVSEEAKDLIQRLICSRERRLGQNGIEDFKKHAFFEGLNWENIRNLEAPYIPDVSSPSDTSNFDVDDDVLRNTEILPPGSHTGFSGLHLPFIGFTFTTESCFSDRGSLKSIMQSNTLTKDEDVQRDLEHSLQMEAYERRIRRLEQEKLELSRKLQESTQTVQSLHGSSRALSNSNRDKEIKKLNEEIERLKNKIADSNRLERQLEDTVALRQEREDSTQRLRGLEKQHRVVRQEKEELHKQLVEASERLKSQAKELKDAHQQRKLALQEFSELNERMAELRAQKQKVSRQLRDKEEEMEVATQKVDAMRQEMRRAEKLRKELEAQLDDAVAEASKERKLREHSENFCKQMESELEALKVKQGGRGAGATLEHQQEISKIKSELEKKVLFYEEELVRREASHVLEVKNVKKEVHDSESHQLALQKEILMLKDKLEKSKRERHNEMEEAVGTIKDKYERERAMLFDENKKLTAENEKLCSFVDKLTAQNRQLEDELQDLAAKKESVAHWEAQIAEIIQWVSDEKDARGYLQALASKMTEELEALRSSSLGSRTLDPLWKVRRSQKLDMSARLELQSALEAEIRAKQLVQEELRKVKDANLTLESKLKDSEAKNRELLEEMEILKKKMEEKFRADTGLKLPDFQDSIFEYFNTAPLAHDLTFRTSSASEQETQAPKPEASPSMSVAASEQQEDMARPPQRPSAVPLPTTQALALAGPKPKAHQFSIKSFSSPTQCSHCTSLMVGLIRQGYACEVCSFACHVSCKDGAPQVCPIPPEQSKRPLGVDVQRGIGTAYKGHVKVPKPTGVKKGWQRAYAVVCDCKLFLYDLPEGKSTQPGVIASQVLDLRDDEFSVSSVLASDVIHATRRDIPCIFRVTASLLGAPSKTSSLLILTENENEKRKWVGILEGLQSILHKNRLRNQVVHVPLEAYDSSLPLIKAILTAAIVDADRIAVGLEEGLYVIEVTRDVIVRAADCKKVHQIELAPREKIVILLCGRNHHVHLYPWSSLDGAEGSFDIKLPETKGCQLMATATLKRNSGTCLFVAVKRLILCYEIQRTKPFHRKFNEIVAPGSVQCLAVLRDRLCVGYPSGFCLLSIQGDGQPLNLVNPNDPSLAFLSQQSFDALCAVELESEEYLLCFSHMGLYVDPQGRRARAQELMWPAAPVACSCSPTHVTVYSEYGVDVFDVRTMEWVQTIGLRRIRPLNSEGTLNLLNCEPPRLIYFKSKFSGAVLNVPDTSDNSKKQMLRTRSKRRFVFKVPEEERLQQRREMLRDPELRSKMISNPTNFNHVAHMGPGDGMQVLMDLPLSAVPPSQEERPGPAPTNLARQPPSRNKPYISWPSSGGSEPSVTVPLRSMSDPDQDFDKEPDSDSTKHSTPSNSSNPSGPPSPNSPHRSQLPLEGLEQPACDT
T4 sequence (P16234 whole entry V561D): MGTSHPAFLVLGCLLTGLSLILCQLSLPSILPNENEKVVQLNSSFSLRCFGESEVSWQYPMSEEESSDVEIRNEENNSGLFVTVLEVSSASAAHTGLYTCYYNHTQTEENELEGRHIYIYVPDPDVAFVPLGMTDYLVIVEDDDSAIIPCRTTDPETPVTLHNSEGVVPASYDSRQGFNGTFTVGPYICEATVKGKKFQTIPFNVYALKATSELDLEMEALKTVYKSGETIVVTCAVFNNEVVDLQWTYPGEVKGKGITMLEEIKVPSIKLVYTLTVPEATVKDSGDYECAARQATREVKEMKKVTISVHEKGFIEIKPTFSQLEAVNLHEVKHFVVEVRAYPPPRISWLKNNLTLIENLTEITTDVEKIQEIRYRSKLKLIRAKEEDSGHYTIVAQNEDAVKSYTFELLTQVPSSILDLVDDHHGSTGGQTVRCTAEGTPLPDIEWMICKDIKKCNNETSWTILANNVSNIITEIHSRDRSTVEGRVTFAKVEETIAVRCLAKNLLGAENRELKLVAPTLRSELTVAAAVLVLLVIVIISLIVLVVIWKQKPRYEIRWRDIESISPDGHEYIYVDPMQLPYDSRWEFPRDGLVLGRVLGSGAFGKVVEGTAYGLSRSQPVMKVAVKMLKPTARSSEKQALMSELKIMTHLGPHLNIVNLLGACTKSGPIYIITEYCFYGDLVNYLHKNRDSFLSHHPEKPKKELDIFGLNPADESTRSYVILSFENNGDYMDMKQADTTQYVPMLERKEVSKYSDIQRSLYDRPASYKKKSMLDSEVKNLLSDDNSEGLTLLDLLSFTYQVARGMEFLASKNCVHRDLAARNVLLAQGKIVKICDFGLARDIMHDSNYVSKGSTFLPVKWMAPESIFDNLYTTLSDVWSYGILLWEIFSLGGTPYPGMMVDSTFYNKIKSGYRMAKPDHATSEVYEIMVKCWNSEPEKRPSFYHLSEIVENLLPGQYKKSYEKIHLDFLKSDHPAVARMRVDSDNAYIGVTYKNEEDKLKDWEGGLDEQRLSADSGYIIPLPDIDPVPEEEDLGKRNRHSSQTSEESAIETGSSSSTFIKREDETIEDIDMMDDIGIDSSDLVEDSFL

Consider `Fc1ccc(CNc2ncnc3ccc(F)cc23)cc1` [5aa, 6-Fluoro-N-(4-fluorobenzyl)-4-Quinazolinamine], for which the remaining activity at 10 µM on OSR1(h) (setting [1]) was determined as 100%; on TNIK(h) (setting [1]), 72%; at JAK3(h) (setting [1]), 94%; at MRCKβ(h) (setting [1]), 80%; on PDGFRα(V561D)(h) (setting [1]), 86%; on CaMKIV(h) (setting [1]), 81%.

In the case of `Fc1ccc(CCNc2ncnc3ccc(F)cc23)cc1` [5as, 6-Fluoro-N-[2-(4-Fluorophenyl)Ethyl]-4-Quinazolinamine], the remaining activity at 10 µM on OSR1(h) (setting [2]) was determined as 95%; at TNIK(h) (setting [2]) it was 83%; at JAK3(h) (setting [2]) it was 94%; at MRCKβ(h) (setting [2]) it was 84%; on PDGFRα(V561D)(h) (setting [2]), 92%; on CaMKIV(h) (setting [2]), 75%.

For the compound `Fc1ccc2ncnc(NCCc3ccc(Cl)cc3)c2c1` [5at, N-[2-(4-Chlorophenyl)Ethyl]-6-Fluoro-4-Quinazolinamine], the remaining activity at 10 µM came to 108% at OSR1(h) (setting [3]); 63% at TNIK(h) (setting [3]); 92% at JAK3(h) (setting [3]); 103% on MRCKβ(h) (setting [3]); 90% on PDGFRα(V561D)(h) (setting [3]); 81% on CaMKIV(h) (setting [3]).

`COc1ccc2ncnc(Nc3cccc(F)c3)c2c1` [5ay, N-(3-Fluorophenyl)-6-Methoxy-4-Quinazolinamine]: the remaining activity at 10 µM at OSR1(h) (setting [4]) is 107%; at TNIK(h) (setting [4]), 65%; on JAK3(h) (setting [4]), 91%; at MRCKβ(h) (setting [4]), 79%; on PDGFRα(V561D)(h) (setting [4]), 98%; at CaMKIV(h) (setting [4]), 68%.
